Earlier results as cited in patent US20190328656A1, “TARGETED DELIVERY OF PROGESTINS AND ESTROGENS VIA VAGINAL RING DEVICES FOR FERTILITY CONTROL AND HRT PRODUCTS” (Evestra, Inc., priority 2018, published 2019).

Legend:
[1] = elimination from the blood stream
[2] = compared to estriol

| SMILES | half-life [1] | estrogenic activity [2] |
| --- | --- | --- |
| C[C@]12CC[C@@H]3c4ccc(O)cc4CC[C@H]3[C@@H]1CC[C@@H]2O [17-beta estradiol] | around 1 hour | – |
| C[C@]12CC[C@@H]3c4ccc(O)cc4CC[C@H]3[C@@H]1[C@@H](O)[C@@H](O)[C@@H]2O [Estetrol] | – | very weak estrogenic activity |
